Assay results from patent US7217411B2, “CeSERT genes, proteins, and modulatory compounds” (Massachusetts Institute of Technology, priority 2000, dated 2007).
“And” between values parts separate entries of the source, which are not always exact repeats. Equal entries are not always repeated.

Columns and labels:
[1] = target: T1, MOD-5 CeSERT (Caenorhabditis elegans, UniProt Q963F3); test: MOD-5-mediated [^3H]serotonin uptake in HEK293 cell lines stably expressing MOD-5; conditions: for MOD-5-mediated uptake of radiolabeled neurotransmitter: 50 μM radiolabeled neurotransmitter vs 1 μM [^3H]serotonin; for transport of [^3H]serotonin by MOD-5, % of control: inhibitor 100 μM, [^3H]serotonin 50 nM
T1 sequence (Q963F3 1-671): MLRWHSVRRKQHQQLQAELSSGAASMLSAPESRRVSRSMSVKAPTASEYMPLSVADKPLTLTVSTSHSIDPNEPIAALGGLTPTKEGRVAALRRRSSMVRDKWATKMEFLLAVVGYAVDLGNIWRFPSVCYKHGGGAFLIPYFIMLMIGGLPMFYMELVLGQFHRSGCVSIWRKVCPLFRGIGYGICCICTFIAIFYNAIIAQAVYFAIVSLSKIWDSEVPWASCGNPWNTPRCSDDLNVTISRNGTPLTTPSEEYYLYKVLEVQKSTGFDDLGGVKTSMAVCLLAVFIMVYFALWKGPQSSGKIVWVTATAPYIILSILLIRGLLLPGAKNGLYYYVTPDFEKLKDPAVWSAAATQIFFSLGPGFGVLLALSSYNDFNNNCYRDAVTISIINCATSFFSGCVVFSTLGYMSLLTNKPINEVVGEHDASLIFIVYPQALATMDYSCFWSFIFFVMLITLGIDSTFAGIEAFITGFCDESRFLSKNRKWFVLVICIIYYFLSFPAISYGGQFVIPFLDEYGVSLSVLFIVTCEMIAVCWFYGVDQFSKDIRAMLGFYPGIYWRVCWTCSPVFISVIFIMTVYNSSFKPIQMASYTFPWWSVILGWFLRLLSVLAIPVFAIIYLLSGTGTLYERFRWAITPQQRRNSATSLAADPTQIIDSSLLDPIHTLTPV

[2] = target: T1, MOD-5 CeSERT; test: cell-based
[3] = tested on: C. elegans; test: fluoxetine-induced nose contraction; assay type: in vivo; conditions: 20 minutes
Text: This conclusion is consistent with the conclusion by Choy and Thomas (1999) that fluoxetine-mediated nose contraction is serotonin-independent, although their hypothesis was based on studies of cat-1(e1111) mutants, which are defective in signaling by several biogenic amines (Duerr et al., J Neurosci 19:72–84, 1999), and cat-4 mutants, which we found to not completely lack serotonin (FIG. 1B).

[4] = tested on: C. elegans; test: fluoxetine-induced paralysis (liquid locomotion assay); assay type: in vivo
Text: (Five trials with 20 animals of each genotype at each concentration and the animals were scored for paralysis after ten minutes.) There was no difference in the time-course of paralysis at any of the concentrations tested. These observations indicate that fluoxetine-induced paralysis in C. elegans is not caused by the lack of serotonin uptake from synapses. Fluoxetine-treated wild-type and mod-5(n3314) mutant animals assumed a rigid body posture. […] Serotonin has been proposed to decrease excitatory input to the locomotory muscles (Nurrish et al., Neuron 24:231–242, 1999).
(§1) The plates were allowed to dry at room temperature with their lids removed for more than 2 hours.
Animals to be tested for sensitivity or insensitivity to serotonin in this liquid locomotion assay were picked as L4 animals 16–20 hours prior to assay and the plates were coded so that the experimenter was blind to the genotype of the animals to be scored. On the day of the assay, serotonin (as a creatinine sulphate salt) was dissolved just before use, in M9, at the required concentrations, and 200 μl were aliquoted to the wells of a flat-bottomed 96-well polystyrene plate. […] Fluoxetine-induced paralysis was scored in a similar manner at 10 min.

[5] = tested on: C. elegans; test: egg-laying assay; assay type: in vivo
Experimental: Egg-laying assays were performed as described in Trent et al. (Genetics 104:619–647, 1983).

[6] = tested on: C. elegans; test: enhanced slowing response (locomotory rate of food-deprived animals on bacteria); assay type: in vivo
Experimental: as §1
For the experiment shown in FIG. 2, well-fed and food-deprived animals were transferred to assay plates with or without a bacterial lawn, and the locomotory rate of each animal was recorded after 5 min; food-deprived animals were transferred to plates without bacteria 30 min prior to the transfer to locomotory assay plates as is also described in Sawin et al. (Neuron 26:619–623, 2000). At least 10 trials were performed for each genotype for each condition. For FIG. 2, each trial involved testing at least five animals for each of the conditions; a given animal was tested in only one condition. p values were calculated by comparing the combined data for the mutants from all of the separate trials under one set of conditions to the combined data for the wild-type animals assayed in parallel under the same conditions. In FIG. 2B the data were obtained from three well-fed animals of each ablation state, seven mock-ablated and food-deprived animals, and 12 NSM-ablated and food-deprived animals. In FIG. 2D, serotonin dose-response curves for wild-type and mod-5 mutant animals were generated from averages of five trials with 20 animals of each genotype at each concentration in which animals were scored for movement after 5 min.
Alternatively, nematodes to be tested in a non-liquid locomotion assay were picked as L4 animals 16–20 hours prior to the assay. Locomotion was assayed by placing the nematode on an assay plate (prepared by spreading a solution of E. coli strain HB101 in NGM agar in 5 cm plates, using a ring with an inner diameter of approximately 1 cm and an outer diameter of approximately 3.5 cm, and allowing the bacteria to grow 13–15 hours at 37 C.), observing each nematode under a dissecting microscope for 20 seconds, and counting the number of dorsal-ventral bends that occurred in the anterior portion of the body during the interval.
To assay locomotion rates in food-deprived animals, 5–15 animals were removed from plates with ample food, washed twice in S-basal buffer, and transferred to 5 cm NGM agar plates without bacteria. Food-deprived animals were incubated on these plates for 30 minutes at room temperature, and then were transferred to assay plates. Locomotion rates were assayed as described above for satiated animals.

[7] = tested on: C. elegans; conditions: in vivo; cited from earlier work
[8] = target: T2, dSERT (Drosophila melanogaster, UniProt P51905); conditions: inhibitor 200 μM, [^3H]serotonin 100 nM; cited from earlier work
T2 sequence (P51905 1-622): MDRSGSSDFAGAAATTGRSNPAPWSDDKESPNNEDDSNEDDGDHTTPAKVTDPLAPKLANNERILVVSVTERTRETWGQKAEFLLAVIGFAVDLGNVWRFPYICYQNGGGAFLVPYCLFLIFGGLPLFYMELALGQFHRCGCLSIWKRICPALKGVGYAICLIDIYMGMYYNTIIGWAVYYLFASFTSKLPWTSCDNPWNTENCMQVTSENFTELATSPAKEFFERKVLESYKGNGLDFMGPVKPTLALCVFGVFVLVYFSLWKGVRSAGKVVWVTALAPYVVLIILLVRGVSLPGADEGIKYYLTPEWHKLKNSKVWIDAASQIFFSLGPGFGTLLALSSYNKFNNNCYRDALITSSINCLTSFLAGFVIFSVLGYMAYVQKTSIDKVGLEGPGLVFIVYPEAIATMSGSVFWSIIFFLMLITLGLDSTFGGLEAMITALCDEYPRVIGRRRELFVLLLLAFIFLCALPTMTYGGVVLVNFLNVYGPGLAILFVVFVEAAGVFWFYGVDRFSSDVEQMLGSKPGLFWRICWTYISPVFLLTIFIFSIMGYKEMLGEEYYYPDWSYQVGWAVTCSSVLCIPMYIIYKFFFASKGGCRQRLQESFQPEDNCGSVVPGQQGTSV

[9] = tested on: C. elegans NSMs; test: serotonin uptake in vivo, anti-serotonin staining of NSMs; conditions: tph-1, 2 mM 5-HT for 2 hours, no fluoxetine
Experimental: For the anti-serotonin antisera experiments shown in FIG. 1B, mod-5(n823); cat-4 and cat-4; lin-15(n765ts) double mutants were grown at 20° C., and animals of both genotypes were incubated separately on plates containing 2 mM serotonin and bacteria (see Sawin et al. (Neuron 26:619–623, 2000) for details concerning how plates were prepared) for two hours and then incubated on plates with bacteria but without serotonin for 30 min. Controls without exogenous serotonin were similarly treated in parallel. Prior to fixation, mod-5(n823); cat-4 and cat-4; lin-15 double mutants preincubated on serotonin-containing plates were combined, and mod-5(n823); cat-4 and cat-4; lin-15 double mutants preincubated on control plates were combined. Serotonin staining was performed as described by Desai et al. (Nature 336:638–646, 1988) using affinity-purified rabbit polyclonal anti-serotonin antisera. The cat-4; lin-15 mutants were not defective in the uptake of serotonin and served as internal controls for each staining reaction. These animals could be distinguished from the test animals by the Multivulva phenotype caused by lin-15.

[10] = tested on: other SERTs; conditions: read-out: Km range of serotonin transport reported for other SERTs; cited from earlier work
[11] = substrate: NCCc1c[nH]c2ccc(O)cc12; test: cells, lysate or membranes; conditions: other: HEK293 GFPMOD-5 cells, Eadie-Hoftsee transformation; pH 7.4; 37.0 °C

## NCCCC(=O)O [GABA, gamma-aminobutyric acid]
[1]
  MOD-5-mediated uptake of radiolabeled neurotransmitter: inefficient at translocating

## NC[C@H](O)c1ccc(O)c(O)c1 [NE, norepinephrine]
[1]
  MOD-5-mediated uptake of radiolabeled neurotransmitter: inefficient at translocating

## COC(=O)[C@H]1[C@@H](OC(=O)c2ccccc2)C[C@@H]2CC[C@H]1N2C [cocaine]
[2]
  Ki: 4080 ± 349 nM

## NCCc1ccc(O)c(O)c1 [dopamine]
[1]
  MOD-5-mediated uptake of radiolabeled neurotransmitter: inefficient at translocating

## CNCCC(Oc1ccc(C(F)(F)F)cc1)c1ccccc1 (stereo not drawn) [fluoxetine]
[3]; tph-1, 2.9 mM
  proportion of animals with contracted noses: 100%
[3]; wild-type and mod-5(n3314), 1.5 mM
  proportion of animals with contracted noses: approximately 25%
[3]; wild-type and mod-5(n3314), 2.9 mM
  proportion of animals with contracted noses: 100%
[4]; mod-5(n3314) mutants vs wild-type, scored after ten minutes
  paralysis induced by fluoxetine treatment: retained wild-type sensitivity to fluoxetine
[4]; tph-1 mutants vs wild-type
  paralysis induced by fluoxetine treatment: paralyzed tph-1 mutants to a similar extent as wild-type animals
[5]; cat-4 mutants
  stimulation of egg-laying: completely resistant
[5]; egl-1(n1084) mutants (lack HSNs)
  stimulation of egg-laying: no effect on egg-laying
[5]; mod-5(n3314) mutants, 1.5 mM fluoxetine
  stimulation of egg-laying: stimulated to lay eggs to nearly the same extent as was the wild-type
[5]; tph-1 mutants
  stimulation of egg-laying: partially resistant
[6]; bas-1, cat-4 mutants preincubated with 2 mM serotonin
  potentiation of the enhanced slowing response: exhibited a potentiated enhanced slowing response
[6]; mod-1(ok103) mutants
  potentiation of the enhanced slowing response: potentiated by fluoxetine
[6]; mod-5(n3314), mod-1(ok103) double mutants
  potentiation of the enhanced slowing response: completely resistant
[6]; wild-type, food-deprived in 0.22 mM fluoxetine
  potentiation of the enhanced slowing response: slow their locomotory rate more
[7]
  concentrations leading to paralysis, contraction of nose muscles, stimulation of egg-laying: 0.25–1 mg/ml and 0.7–2.9 mM

## N[C@@H](CCC(=O)O)C(=O)O [glutamate]
[1]
  MOD-5-mediated uptake of radiolabeled neurotransmitter: inefficient at translocating

## NCCc1c[nH]cn1 [histamine]
[1]
  MOD-5-mediated uptake of radiolabeled neurotransmitter: inefficient at translocating

## CN(C)CCCN1c2ccccc2CCc2ccccc21 [imipramine]
[2]
  Ki: 89 ± 58 nM

## NCC(O)c1ccc(O)cc1 (stereo not drawn) [octopamine]
[8]
  dSERT-mediated transport of [^3H]serotonin, % of control: 82%±15%
[1]
  transport of [^3H]serotonin by MOD-5, % of control: 86%±12%

## NCCc1c[nH]c2ccc(O)cc12 [serotonin]
[9]; mod-5(n3314)
  % Serotonin-positive NSMs: 0%
[9]
  % Serotonin-positive NSMs: 98%
[10]
  Km: 0.28 to 0.63 µM
[1]; HEK293 GFPMOD-5 cells
  Vmax of MOD-5-mediated [^3H]serotonin transport: 8.31×10^−9 nmoles per cell per min

## NCCc1ccc(O)cc1 [tyramine]
[8]
  dSERT-mediated transport of [^3H]serotonin, % of control: 95%±15%
[1]
  transport of [^3H]serotonin by MOD-5, % of control: 54%±10%

B1: MOD-5 CeSERT (Caenorhabditis elegans) (protein)
chain: T1 sequence (Q963F3 1-671)
[11]
  Km: 0.15 ± 0.008 µM
